Experimental data from ChEMBL document CHEMBL5370544, “Design, synthesis, and biological evaluation of 1-styrenyl isoquinoline derivatives for anti-hepatocellular carcinoma activity and effect on mitochondria” (Eur J Med Chem, 2023).
Active and inactive are the calls of the source.

Assays:
[1] = system: SK-HEP1; assay: Inhibition of PI3K signalling pathway in human SK-HEP1 cells assessed as inhibition of PI3K phosphorylation at 1.5 to 13.5 uM measured after 48 hrs by Western blotting analysis; type: cell-based; details: dose 1.5-13.5 µM
[2] = system: Huh-7; assay: Induction of ROS production in human Huh-7 cells assessed as increase in intracellular ROS level at 0.9 to 8.1 uM incubated for 24 hrs by DCFH-DA staining based fluorescence assay; type: functional, cell-based; details: dose 0.9-8.1 µM
[3] = system: SK-HEP1; assay: Induction of apoptosis in human SK-HEP1 cells assessed as inhibition of caspase-3 expression incubated for 48 hrs by Western blotting analysis; type: functional, cell-based; details: dose 1.5-13.5 µM
[4] = system: SK-HEP1; assay: Antiproliferative activity against human SK-HEP1 cells assessed as inhibition of cell growth upto 2 uM by MTT assay; type: functional, cell-based; details: time 72.0 hrs, TDE = time-dependent effect
[5] = system: SK-HEP1; assay: Induction of apoptosis in human SK-HEP1 cells assessed as increase in cleaved caspase-9 expression at 1.5 to 13.5 uM incubated for 48 hrs by Western blotting analysis; type: functional, cell-based; details: dose 1.5-13.5 µM
[6] = system: SK-HEP1; assay: Induction of apoptosis in human SK-HEP1 cells assessed as inhibition of caspase-9 expression incubated for 48 hrs by Western blotting analysis; type: functional, cell-based; details: dose 1.5-13.5 µM

CC(=O)Oc1ccccc1/C=C/c1nccc2ccccc12
active: inhibition [1] | Activity [2] | Activity [3] Dose-Dependent Effect | Activity [4] Tde | Activity [5] | Activity [6] Dose-Dependent Effect
